Key:
hERG channel = hERG channel (Homo sapiens (Human), UniProt Q12809); assay: hERG channel inhibition, whole cell patch clamp; type: cell-based; conditions: 10 μM compound
Method: The assay was performed on hERG channel stably expressed in HEK293 cells. The cells were cultured at 37° C. in a humidified CO2 incubator in the growth medium consisting of DMEM, 10% fetal bovine serum and antibiotics. Prior to the assay, the cells were seeded onto a 12 mm PDL-coated glass coverslip and cultured in a 35 mm Petri dish. After 16 to 40 hr culture, the cover slip was transferred into the chamber of OctaFlow perfusion system (ALA Instrument) and under a constant flow of extracellular solution (140 mM NaCl, 4 mM KCl, 1 mM MgCl2, 2 mM CaCl2, 10 mM HEPES, 10 mM D-glucose, pH 7.35, osmolarity 290). Whole cell patch clamping was performed with a glass micropipette filled with intracellular solution (120 mM KCl, 1.75 mM MgCl2, 5.4 mM CaCl2, 10 mM HEPES, 10 mM EGTA, and 4 mM ATP-K2, PH 7.2, osmolarity 310). Giga-seal was maintained during the test. The voltage control and current measurement were carried out using Axon amplifier 700B, Digidata 1440A and CLAMPEX10 software (Molecular Devices). Whole-cell hERG currents were recorded following the Petroski protocol: the cell was held at −80 mV, and the voltage step jumped from −80 to 30 mV and stay for 2 sec with a 20 ms prepulse at −40 mV. After depolarization, the voltage was decreased to −40 mV and stay for 2 sec, and returned back to −80 mV. Test compound was applied by quartz capillary tubes tip (200 μm inner diameter), and the flow rate was controlled at 2-3 ml/min with OctaFlow perfusion system. Different concentrations of the compound were applied to the cells for 5 min and the hERG current was measured three times before, during and after compound treatment. The data were analyzed using Clampfit 10 software (Molecular Devices) to generate IC50 values.

CYP2D6 = CYP2D6 (Homo sapiens (Human), UniProt P10635); assay: CYP P450 enzyme inhibition in pooled human liver microsomes; type: in vitro ADME; conditions: 10 μM compound, pooled HLM
Method: Those CYP isoforms and their corresponding probe substrates are as follows: CYP1A2 (phenacetin, 30 μM), CYP2C9 (tolutamide, 100 μM), CYP2C19 (S-mephenytoin, 40 μM), CYP2D6 (dextromethorphan, 5 μM) and CYP3A4 (midazolam, 1 μM). All probe substrates were used at concentrations near or below their Kms. For experiment, a reaction mixture of test compound at 10 μM or in serial dilution, CYP probe substrate described above and 0.2 mg/mL pooled HLM in phosphate buffer, pH 7.4 in a final volume of 200 μL was pre-incubated at 37° C. for 10 minutes in triplicate. The reaction was initiated by addition of NADPH at final concentration of 1 mM. The reaction was terminated after 10 minutes (CYP1A2, CYP2D6 and CYP3A4) or 30 minutes (CYP2C9 and CYP2C19) by addition of 100 μL ice-cold acetonitrile with internal standard (IS). The samples were then centrifuged at 13,000 rpm and the supernatants were injected to LC-MS/MS (Agilent Technologies) to quantify the concentration of the specific metabolites of the probe substrates formed by individual CYP450 isoforms. The inhibition ratio is calculated as: (Mt−M0)/Mwater×100% in which Mt and M0 represent the concentrations of the specific probe substrate metabolite, which was formed by individual CYP450 isoform, at the beginning and end of the reaction in the presence of test compound; while Mwater represents the concentration of the specific metabolite at the end of the reaction in the absence of test compound. Test compound concentration-dependent response data experiments performed in triplicate.

rats [1] = assay: Electroconvulsive Threshold Test (ECT); type: in vivo; conditions: 3, 10 and 30 mpk p.o., mesylate salt
Method: (§1) Test compound E1-8.2 was administered as the free base.
Rats were administered ECS (rectangular current: 0.6 ms pulse width, 1.5 s duration, 200 Hz) via earclip electrodes connected to a constant current shock generator (Ugo Basile: type 7801). Test compounds were administered by oral gavage (p.o.) 1 hour before the test at a dose volume of 5 mL/kg.
Treatment groups of 20 rats were exposed to ECS as follows: The first animal was exposed to 30 mA of ECS. […] (increases of 5 mA) until the first tonic convulsion was observed. Once the first tonic convulsion was observed, the intensity of ECS was decreased by 2 mA for the next animal and then decreased or increased by 2 mA from animal to animal depending on whether the previous animal convulsed or not. If the first animal did convulse (tonic convulsions) within 5 seconds, animal no 2 is exposed to 25 mA, etc. . . . (decreases of 5 mA) until the absence of tonic convulsions was observed. At this point, the intensity of ECS was increased by 2 mA for the next animal and then decreased or increased by 2 mA from animal to animal depending on whether the previous animal convulsed or not. The minimum current intensity applied is 5 mA and the maximum 95 mA. The first 5 animals serve to approach threshold current and were not included in the analysis. The results are presented as the mean current intensity administered to the final 15 animals of a group. The test was performed blind. A positive percent change indicates an anticonvulsant effect. A negative percent change indicates a proconvulsant effect. The test substance was evaluated at 4 doses, typically using 0.5% dimethylsulfoxide, 4% hydroxypropyl-b-cyclodextrin water as a vehicle, and administered p.o. 60 minutes before ECS, and compared with a vehicle control group. Diazepam (16 mg/kg p.o.), administered under the same experimental conditions, was used as reference substance. The experiment included 6 groups. Data with the test substance was analyzed by comparing treated groups with vehicle control using one-way ANOVA followed by Dunnett's t tests.

rats [2] = assay: Pentylenetetrazole (PTZ) Seizure Test; type: in vivo; conditions: 10 mg/kg p.o. 30 min before PTZ 100 mg/kg s.c.
Method: Rats, placed in individual macrolon cages (25×19×13 cm), were injected with pentylenetetrazole (PTZ) (100 mg/kg s.c.). The occurrence and latency of clonic and tonic convulsions and death were noted over a 30 minute period. 15 rats were studied per group. The test was performed blind.
as §1
Compounds were evaluated typically using 0.5% dimethylsulfoxide, 4% hydroxypropyl-b-cyclodextrin water as a vehicle at 1 or more doses (e.g., 1, 3 and 10 mg/kg), administered p.o. 30 minutes before PTZ, and compared with a vehicle control group. Diazepam (16 mg/kg p.o.), administered 60 minutes before PTZ, was used as reference substance. The experiment was performed over 2 separate sub-experiments with N=7 to 8 animals per group and per sub-experiment. Quantitative data (latencies) with the test substance was analyzed by comparing treated groups with vehicle control using Kruskal-Wallis test followed by Mann-Whitney U test. Quantitative data with the reference substance was analyzed using Mann-Whitney U test. Quantal data (frequencies) was analyzed by comparing treated groups with vehicle control using Fisher's Exact Probability tests (*=p<0.05; **=p<0.01; ***=p<0.001).

rats [3] = assay: Rat formalin model; type: in vivo; conditions: each of 10, 30 and 60 mpk i.p., mesylate salt
Method: The rat formalin model is a tonic model of continuous pain resulting from formalin-induced spontaneous nociceptive behaviors. Intra-paw injection of formalin is a commonly used model to measure spontaneous nociceptive behaviors in rodents (Dubuisson, D. and Dennis, S. G. Pain 4:161, 1977). Subcutaneous plantar injection of formalin causes a bi-phasic nocifensive behavioral response in rodents. The early phase (phase-1) lasts for about 5-10 min following which an interphase occurs without any discernible nociceptive reactions after which the late phase (phase-II) nociceptive reaction ensues continuing from about 20-60 min following formalin injection. Formalin model is a model of tonic, persistent pain, and is widely used for rapid screening of novel analgesic compounds. […] In the present example, effects of test item were assessed in 0-5 minutes from the early phase (phase-I) and 20-35 minutes from the late phase (phase-II) of formalin-induced nociceptive behavior. […]
For all groups, animals were acclimated to the observation chamber for 15 minutes immediately prior to formalin injection. All animals received an intraplantar subcutaneous injection of 50 μL of 5% formalin into the left hind paw and then placed immediately into an observation chamber and formalin-evoked spontaneous nociceptive behaviors in the rats were continuously recorded for 0-60 min using a commercial camcorder. […]

rats [4] = assay: Cortical spreading depression (CSD) migraine model; type: in vivo
Method: The cortical spreading depression model is utilized to investigate whether treatment with compounds of the present invention affect electrophysiological and hemodynamic events in a rat model of migraine.
Rats were anesthetized with 5% isoflurane (in 70% N2O and 30% O2; flow 300 ml/min) and placed in a stereotactic frame. […] The rectal temperature was maintained at 37.0±1.0° C. with a homeothermic blanket system. The skin was opened by a medial incision and retracted laterally. Three burr holes were drilled under saline cooling over the right hemisphere at the following coordinates (mm from bregma): (1) posterior 4.5, lateral, 2.0 (occipital cortex): KCl application site; (2) posterior 0.5, lateral 2.0 (parietal cortex): LDF recording site; (3) anterior 2, lateral 2 (frontal cortex): DC potential recording site. A laser-Doppler flow probe (Oxyflow, Oxford Optronics, UK) to monitor CBF and an invasive Ag/AgCl electrode for measuring direct current (DC) potential shifts were placed in the parietal and frontal cortex burr holes on the intact dura and in the cortex, respectively. The laser-Doppler flow probe was positioned in an area free of large pial and dural vessels to minimize a large-vessel contribution to the signal. For the DC-potential measurement, a reference electrode was fixed in the neck. Dura overlying the occipital cortex was gently removed and care was taken to avoid bleeding. After surgical preparation, the cortex was allowed to recover for 15 minutes under saline irrigation. A cotton ball (2 mm diameter) soaked with 1M KCl was placed on the pial surface and kept moist by placing 5 μl of KCl solution every 15 minutes. Test compound or vehicle was administered ten (10) minutes prior to CSD initiation. […] The number of KCl-induced CSDs was counted for 2 hours. The CBF and DC-potentials were monitored continuously starting from 5 minutes before KCl exposure.
Test compound E1-1.2 was administered as a mesylate salt (mpk based on molecular weight of the mesylate salt).
The data was collected in Windaq acquisition software (Dataq Instruments, USA) at 20 kHz. The raw data was analyzed in Clampfit program (Axon Instruments, USA). The signals were low pass filtered (cut off range 5-10000 Hz) that CSD episodes in DC and CBF could be confirmed. The following parameters were analyzed: i) the number, duration and amplitude of DC-potentials, and ii) the number and amplitude of CBF events.

rats [5] = assay: Haloperidol-induced Catalepsy (HIC) model; type: in vivo; conditions: 8 mg/kg p.o. 60 minutes before the test
From the text: The Haloperidol-induced Catalepsy (HIC) model detects antipsychotic activity and the action of NR2B selective antagonists (Steece-Collier et al. Exp. Neurol. 163: 239, 2000) and was based on methods described by Chermat and Simon (J. Pharmacol., 6, 493-496, 1975). The capacity to induce catalepsy serves as an index of the liability of a test substance to induce extrapyramidal side-effects, in particular Parkinsonism. Antagonism of antipsychotic-induced catalepsy can thus serve to detect anti-Parkinson potential.
Rats were injected with haloperidol (1 mg/kg i.p.) and were examined for catalepsy at 30 minute intervals up to 360 minutes. Presence (+) or absence (−) of catalepsy was assessed by three procedures: 1) imposed crossing of the ipsilateral fore- and hind-limbs; 2) placing the animal in the Buddha position; 3) the tilting board, an automatic device that, 5 seconds after positioning the rat, displaces the rat from a horizontal to vertical position and back while it clings to a wire grid with its front paws. Akinesia and catalepsy were assessed depending on whether or not the animal moves before (akinesia) or during operation of the board (catalepsy). […]
Amphetamine (8 mg/kg p.o.), administered 60 minutes before the test (i.e. 90 minutes before the first measurement), was used as reference substance. […] Data with the reference substance were analyzed using Mann-Whitney U tests.

[6] = E1-1.2 at various doses, MK-801 1.25 mg/kg

Sequence of hERG channel (Q12809 whole entry): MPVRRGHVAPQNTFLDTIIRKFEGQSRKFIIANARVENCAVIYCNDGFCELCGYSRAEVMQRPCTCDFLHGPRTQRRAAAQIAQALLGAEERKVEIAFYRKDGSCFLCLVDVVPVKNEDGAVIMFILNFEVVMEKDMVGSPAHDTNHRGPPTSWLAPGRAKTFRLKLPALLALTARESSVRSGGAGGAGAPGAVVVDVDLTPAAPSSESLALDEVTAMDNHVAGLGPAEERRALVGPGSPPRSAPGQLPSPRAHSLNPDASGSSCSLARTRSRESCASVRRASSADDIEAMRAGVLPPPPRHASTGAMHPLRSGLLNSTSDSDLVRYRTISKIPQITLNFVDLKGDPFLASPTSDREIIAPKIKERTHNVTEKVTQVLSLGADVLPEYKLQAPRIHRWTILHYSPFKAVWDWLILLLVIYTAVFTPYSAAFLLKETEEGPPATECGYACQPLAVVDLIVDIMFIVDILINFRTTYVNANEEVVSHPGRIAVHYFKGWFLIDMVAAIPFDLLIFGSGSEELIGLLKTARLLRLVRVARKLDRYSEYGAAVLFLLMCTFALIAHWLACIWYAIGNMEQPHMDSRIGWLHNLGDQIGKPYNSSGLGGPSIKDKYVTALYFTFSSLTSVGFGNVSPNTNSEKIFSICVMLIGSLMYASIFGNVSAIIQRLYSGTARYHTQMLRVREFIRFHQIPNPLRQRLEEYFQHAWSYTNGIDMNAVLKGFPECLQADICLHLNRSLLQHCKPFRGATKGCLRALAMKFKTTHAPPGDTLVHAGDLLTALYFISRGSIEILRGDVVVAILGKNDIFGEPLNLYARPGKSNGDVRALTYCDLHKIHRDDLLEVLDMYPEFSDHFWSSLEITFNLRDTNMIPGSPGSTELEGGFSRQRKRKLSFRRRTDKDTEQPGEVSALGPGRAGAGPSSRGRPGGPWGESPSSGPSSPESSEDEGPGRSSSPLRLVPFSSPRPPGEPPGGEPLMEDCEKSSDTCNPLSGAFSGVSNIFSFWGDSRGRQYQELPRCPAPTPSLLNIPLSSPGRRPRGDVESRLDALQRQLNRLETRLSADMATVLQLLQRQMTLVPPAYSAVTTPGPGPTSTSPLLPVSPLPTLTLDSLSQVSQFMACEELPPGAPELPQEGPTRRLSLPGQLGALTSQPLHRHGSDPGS
Sequence of CYP2D6 (P10635 whole entry): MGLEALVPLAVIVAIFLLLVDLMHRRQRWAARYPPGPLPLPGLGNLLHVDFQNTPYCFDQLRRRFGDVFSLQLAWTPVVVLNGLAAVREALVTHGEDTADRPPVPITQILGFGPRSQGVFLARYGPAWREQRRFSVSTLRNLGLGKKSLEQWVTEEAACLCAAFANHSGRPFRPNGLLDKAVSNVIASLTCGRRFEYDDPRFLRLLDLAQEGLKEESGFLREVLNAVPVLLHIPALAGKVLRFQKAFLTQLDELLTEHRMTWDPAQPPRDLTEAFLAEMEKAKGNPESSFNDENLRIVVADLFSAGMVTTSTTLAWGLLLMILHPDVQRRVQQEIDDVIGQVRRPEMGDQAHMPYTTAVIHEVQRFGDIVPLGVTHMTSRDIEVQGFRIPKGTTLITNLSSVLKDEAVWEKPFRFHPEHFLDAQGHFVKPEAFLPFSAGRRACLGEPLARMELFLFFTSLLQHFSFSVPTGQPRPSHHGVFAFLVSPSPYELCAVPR

| SMILES | hERG @ 10 μM (%) (hERG channel) | CYP2D6 @ 10 μM (%) (CYP2D6) | activity on electroconvulsive threshold (rats [1]) | change in latency to death (rats [2]) | change in number of deaths vs vehicle controls (rats [2]) [%] | cumulative time spent on nociceptive behavior in phase I (0-5 mins) (rats [3]) | cumulative time spent on nociceptive behavior in phase II (20-35 mins) (rats [3]) | magnitude of CBF vs vehicle (rats [4]) | number of DC potentials vs vehicle group (rats [4]; 3 mpk, 10 mpk and 30 mpk, mesylate salt) | number of CBF events vs vehicle (rats [4]; E1-1.2 at 10 mg/kg, MK-801 at 1.25 mg/kg) | amplitude of DC potentials vs vehicle (rats [4]; [6]) | duration of DC potentials vs vehicle (rats [4]; [6]) | anticataleptic activity (rats [5]) |
| --- | --- | --- | --- | --- | --- | --- | --- | --- | --- | --- | --- | --- | --- |
| Cc1ccc(COC(=O)N2CC[C@H](CNc3nccn4cnnc34)C(F)(F)C2)cc1 [Compound E1-1.2, (+)-R-4-methylbenzyl 4-(([1,2,4]triazolo[4,3-a]pyrazin-8-ylamino)methyl)-3,3-difluoropiperidine-1-carboxylate] | 17 | 14 | robust anticonvulsant activity | +35% | −91 | decreased | decreased | unchanged | significantly decreased | decreased | not statistically different compared to vehicle | not statistically different compared to vehicle | – |
| CC(N)Cc1ccccc1 (stereo not shown) [amphetamine] | – | – | – | – | – | – | – | – | – | – | – | – | showed the expected robust anticataleptic activity |

Source: US11136328B2, “3,3-difluoropiperidine carbamate heterocyclic compounds as NR2B NMDA receptor antagonists” (Rugen Holdings (Cayman) Limited, priority 2015, dated 2021)
